What was measured:
Format in all cases: in vivo
ABUTH [1] = test: Pre-emergence herbicidal activity, glasshouse pot test; conditions: rate 1000 g/Ha, evaluated after 13 days, scale 0-5
Description: (§1) Seeds of a variety of test species were sown in standard soil in pots. After cultivation for one day (pre-emergence) under controlled conditions in a glasshouse (at 24/16° C., day/night; 14 hours light; 65% humidity), the plants were sprayed with an aqueous spray solution derived from the formulation of the technical active ingredient in acetone/water (50:50) solution containing 0.5% Tween 20 (polyoxyethelyene sorbitan monolaurate, CAS RN 9005-64-5). The test plants were then grown in a glasshouse under controlled conditions (at 24/16° C., day/night; 14 hours light; 65% humidity) and watered twice daily. After 13 days, the test was evaluated (5=total damage to plant; 0=no damage to plant).

AMARE [2] = test: as above; conditions: rate 1000 g/Ha, evaluated after 13 days, scale 0-5
Description: as §1

ECHCG [3] = test: as above; conditions: rate 1000 g/Ha, evaluated after 13 days, scale 0-5
Description: as §1

SETFA [4] = test: as above; conditions: rate 1000 g/Ha, evaluated after 13 days, scale 0-5
Description: as §1

ZEAMX [5] = test: as above; conditions: rate 1000 g/Ha, evaluated after 13 days, scale 0-5
Description: as §1

ABUTH [6] = test: Post-emergence herbicidal activity, glasshouse pot test; conditions: Abutilon theophrasti; application post-emergence; rate 1000 g/Ha; evaluated after 13 days
Description: (§2) Seeds of a variety of test species were sown in standard soil in pots. After 8 days cultivation (post-emergence) under controlled conditions in a glasshouse (at 24/16° C., day/night; 14 hours light; 65% humidity), the plants were sprayed with an aqueous spray solution derived from the formulation of the technical active ingredient in acetone/water (50:50) solution containing 0.5% Tween 20 (polyoxyethelyene sorbitan monolaurate, CAS RN 9005-64-5). The test plants were then grown in a glasshouse under controlled conditions (at 24/16° C., day/night; 14 hours light; 65% humidity) and watered twice daily. After 13 days, the test was evaluated (5=total damage to plant; 0=no damage to plant).

AMARE [7] = test: as above; conditions: Amaranthus retroflexus; application post-emergence; rate 1000 g/Ha; evaluated after 13 days
Description: as §2

ECHCG [8] = test: as above; conditions: Echinochloa crus-galli; application post-emergence; rate 1000 g/Ha; evaluated after 13 days
Description: as §2

SETFA [9] = test: as above; conditions: Setaria faberi; application post-emergence; rate 1000 g/Ha; evaluated after 13 days
Description: as §2

ZEAMX [10] = test: as above; conditions: Zea mays; application post-emergence; rate 1000 g/Ha; evaluated after 13 days
Description: as §2

Structure (SMILES)	ABUTH damage score, application pre-emergence (ABUTH [1])	AMARE damage score, application pre-emergence (AMARE [2])	ECHCG damage score, application pre-emergence (ECHCG [3])	SETFA damage score, application pre-emergence (SETFA [4])	ZEAMX damage score, application pre-emergence (ZEAMX [5])	Post-emergence herbicidal activity ABUTH (damage score 0-5) (ABUTH [6])	Post-emergence herbicidal activity AMARE (damage score 0-5) (AMARE [7])	Post-emergence herbicidal activity ECHCG (damage score 0-5) (ECHCG [8])	Post-emergence herbicidal activity SETFA (damage score 0-5) (SETFA [9])	Post-emergence herbicidal activity ZEAMX (damage score 0-5) (ZEAMX [10])
CON1C(=O)N(c2cc(C(F)(F)Cl)ccn2)C(O)[C@@H]1C (stereo partly drawn) [Compound A90]	3	5	4	4	2	5	5	5	5	5
CC1C(O)N(c2ccc(C(F)(F)F)cn2)C(=O)N1C (stereo not drawn) [Compound A74]	5	5	4	4	3	5	5	4	5	3
CC1C(O)N(c2cc(C(F)(F)F)c(C(=O)NC(C)(C)C)cn2)C(=O)N1C (stereo not drawn) [Compound A65]	5	5	5	5	3	5	5	5	5	5
CCOC1C(O)N(c2cc(Cl)c(C(=O)NC(C)(C)C)cn2)C(=O)N1C (stereo not drawn) [Compound A69]	5	5	5	5	2	5	4	5	4	3
CC1C(O)N(c2ccc(C(=O)NC(C)(C)C)cn2)C(=O)N1C (stereo not drawn) [Compound A67]	5	5	5	5	3	5	5	5	5	4
O=C1N2CCOC2C(O)N1c1cc(C(F)(F)F)ccn1 (stereo not drawn) [Compound A75]	5	5	4	4	2	5	5	5	5	2
CON1C(=O)N(c2cc(C(F)(F)C(F)(F)F)ccn2)C(O)C1C (stereo not drawn) [Compound A73]	5	5	4	5	3	5	5	5	5	3
CCO[C@@H]1C(O)N(c2cc(C(F)(F)F)ccn2)C(=O)N1C (single isomer, unassigned) [Compound A34]	5	5	5	5	3	5	5	5	5	4
CC1C(O)N(c2cc(Cl)c(C(=O)NC(C)(C)C)cn2)C(=O)N1C (stereo not drawn) [Compound A71]	5	5	5	0	3	5	5	5	5	4
CC1C(O)N(c2cc(C(F)(F)F)ccn2)C(=O)N1O (stereo not drawn) [Compound A64]	2	5	4	3	2	4	5	5	4	1
COCc1cnc(N2C(=O)N(C)C(C)C2O)cc1C(F)(F)F (stereo not drawn) [Compound A105]	5	5	5	5	4	5	5	5	5	5
COCN1C(=O)N(c2cc(C(F)(F)F)ccn2)C(O)C1C (stereo not drawn) [Compound A76]	5	5	3	4	2	5	5	4	4	1
CON1C(=O)N(c2cc(C(F)(F)F)c(C)cn2)C(O)[C@@H]1C (stereo partly drawn) [Compound A79]	5	5	5	5	2	5	5	5	5	4
CC1C(O)N(c2cc(C(F)(F)Cl)ccn2)C(=O)N1C (stereo not drawn) [Compound A85]	5	5	5	5	3	5	5	5	5	4
CCO[C@@H]1[C@@H](OC(=O)[C@](OC)(c2ccccc2)C(F)(F)F)N(c2cc(C(F)(F)F)ccn2)C(=O)N1C [Compound A102]	5	5	4	3	1	5	5	2	1	1
